Laboratory results: patent US20130261136A1, “COFFEE EXTRACTS AS INGREDIENTS OF FOODS, DRUGS, COSMETICS, DIETARY SUPPLEMENTS, AND BIOLOGICS” (priority 2010, published 2013)

Columns and labels:
[1] = ORAC assay adapted for the linoleate microemulsion system (relative ORAC, synergy)
Experimental: Synergistic effects of bioactive compounds combined with alpha-tocopherol. […] An OBS microplate was prepared with duplicate wells of Trolox solution standards (20 μL; 500, 250, 125, 62.5, or 31.25 μM) and triplicate wells of samples diluted in phosphate buffer (20 μL). The perimeter wells were not used for kinetic studies to avoid potential edge effects. The oxidation substrate, methyl linoleate microemulsion (200 μL), was then added. […] A control well containing 200 μL of microemulsion and 40 μL of phosphate buffer was used to normalize the fluorescence reading. The reaction kinetics were monitored at 37° C. for 2 h, with readings every 2 min, by a Synergy HT microplate fluorescent reader (Biotek Instruments Inc.). The microplate reader was fitted with an excitation filter at 485 nm, an emission filter of 590 nm, and an oxygen sensor biosystem, and the plate was shaken for 20 s at low intensity before each reading to ensure sufficient mixing. After normalization, the fluorescence data were converted to the oxygen concentration at each point of the reaction. The ORAC values of samples were determined as previously described ([…]. et al., Journal of Agricultural and Food Chemistry 2009, 57, 3409-3414).

[2] = system: human adipocytes; experiment: Glucose uptake (3H-2-deoxyglucose) in adipocytes; assay type: cell-based; conditions: 100 nM insulin (positive control)
Experimental: (§1) Glucose uptake. […] Briefly, primary human subcutaneous adipocytes or primary human myoblasts were differentiated in 96-well microplates. […] All samples, including the positive and negative controls, were tested in triplicate. After a 2-h incubation at 37° C. and 5% CO2, the cells were washed with PBS and lysed. The cell lysate was mixed with scintillation fluid and radioactivity of each well was measured as counts per minute (CPM).

[3] = system: human skeletal muscle cells; experiment: Glucose uptake (3H-2-deoxyglucose) in skeletal muscle cells; assay type: cell-based; conditions: 100 nM insulin (positive control)
Experimental: as §1

Compound	Antioxidant effect in combination with α-tocopherol [1]	Increase in glucose uptake [2] [fold]	Increase in glucose uptake [3] [fold]
Oc1cc(O)c2c(c1)O[C@H](c1ccc(O)c(O)c1)[C@@H](O)C2 [catechin, Catechin]	synergistic		
O=C1O[C@H]([C@@H](O)CO)C(O)=C1O [ascorbic acid]	additive		
insulin		1.6	2.06
O=C(/C=C/c1ccc(O)c(O)c1)O[C@@H]1C[C@](O)(C(=O)O)C[C@@H](O)[C@H]1O [chlorogenic acid]	synergistic		
